From US8916593B2, “Alkoxy-substituted 2-aminopyridines as ALK inhibitors” (Pfizer Inc., priority 2010, dated 2014) come the findings set out here.

Structures can show the parent of a compound that is named as a salt. Where two headings read alike, the source gives them in different places. Some results are limits rather than exact numbers.

Experiment [1] deals with T1, human recombinant wild-type ALK kinase domain (amino acids 1093-1411) (Homo sapiens, UniProt Q9UM73).
T1 construct: ALK kinase domain (amino acids 1093-1411); made in house
T1 sequence (Q9UM73 1093-1411): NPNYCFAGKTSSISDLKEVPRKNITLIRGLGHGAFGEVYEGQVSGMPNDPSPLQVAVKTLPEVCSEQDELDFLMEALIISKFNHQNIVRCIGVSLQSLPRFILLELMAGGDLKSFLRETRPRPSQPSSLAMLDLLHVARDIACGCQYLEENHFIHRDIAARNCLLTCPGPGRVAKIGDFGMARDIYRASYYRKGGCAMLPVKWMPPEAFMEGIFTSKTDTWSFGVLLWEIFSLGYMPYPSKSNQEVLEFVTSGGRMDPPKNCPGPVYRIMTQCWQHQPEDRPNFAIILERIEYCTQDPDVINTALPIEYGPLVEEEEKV
Put plainly: ALK enzyme assay 2 (microfluidic mobility shift assay).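 Further: kinase reaction run 1 h at room temperature, conversion quantified by electrophoretic separation of fluorescent peptide substrate from phosphorylated product, about 15-20% turnover without inhibitor.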 The format is biochemical.
Method: The reactions were incubated for 1 h at room temperature, stopped by the addition of 0.1 M EDTA, pH 8, and the extent of reactions (˜15-20% conversion with no inhibitor) was determined after electrophoretic separation of the fluorescently labeled peptide substrate and phosphorylated product on an LabChip EZ Reader II (Caliper Life Sciences, Hopkinton, Mass.).

The target in experiment [2] is EML4-ALK wt v1 in NIH-3T3 cells (Homo sapiens, UniProt Q9UM73).
Sequence of EML4-ALK wt v1 in NIH-3T3 cells (Q9UM73 with tags, fused parts or gaps): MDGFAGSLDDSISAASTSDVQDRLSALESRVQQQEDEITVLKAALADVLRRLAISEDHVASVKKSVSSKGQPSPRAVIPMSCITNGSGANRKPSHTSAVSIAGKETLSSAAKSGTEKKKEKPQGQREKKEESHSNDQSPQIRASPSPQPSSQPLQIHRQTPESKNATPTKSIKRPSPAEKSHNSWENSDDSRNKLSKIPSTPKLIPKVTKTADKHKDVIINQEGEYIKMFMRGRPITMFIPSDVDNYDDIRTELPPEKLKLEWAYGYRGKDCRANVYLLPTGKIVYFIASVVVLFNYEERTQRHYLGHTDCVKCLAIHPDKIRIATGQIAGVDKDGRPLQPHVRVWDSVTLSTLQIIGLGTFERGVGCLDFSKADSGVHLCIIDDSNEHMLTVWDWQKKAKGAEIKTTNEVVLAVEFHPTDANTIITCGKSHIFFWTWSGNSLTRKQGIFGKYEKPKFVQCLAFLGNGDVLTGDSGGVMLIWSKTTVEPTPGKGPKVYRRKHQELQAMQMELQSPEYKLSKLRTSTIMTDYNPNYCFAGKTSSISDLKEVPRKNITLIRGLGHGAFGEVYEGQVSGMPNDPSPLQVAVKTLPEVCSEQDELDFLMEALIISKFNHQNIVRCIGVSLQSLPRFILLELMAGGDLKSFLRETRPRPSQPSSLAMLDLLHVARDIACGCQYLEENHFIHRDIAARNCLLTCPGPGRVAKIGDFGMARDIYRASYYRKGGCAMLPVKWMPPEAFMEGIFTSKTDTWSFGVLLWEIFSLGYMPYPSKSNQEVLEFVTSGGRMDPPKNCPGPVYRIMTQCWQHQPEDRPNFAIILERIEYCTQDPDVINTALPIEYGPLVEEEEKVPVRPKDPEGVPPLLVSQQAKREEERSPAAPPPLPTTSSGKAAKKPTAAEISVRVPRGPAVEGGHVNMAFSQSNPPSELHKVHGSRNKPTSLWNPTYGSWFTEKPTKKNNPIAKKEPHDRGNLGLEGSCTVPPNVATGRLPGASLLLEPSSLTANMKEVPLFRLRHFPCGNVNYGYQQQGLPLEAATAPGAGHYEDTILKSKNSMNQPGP
The next experiment addresses T2, ALK enzyme (Homo sapiens, UniProt Q9UM73).
T2 construct: purchased Invitrogen PV4185
Put plainly: ALK enzymatic activity assay 1. Format: biochemical. Here is the method:
ALK Enzymatic Activity Assay 1
Compounds were added at a final concentration of 1% DMSO in half-log dilutions, starting at 20 μM final concentration. The reactions were initiated by the addition of 10 μL of peptide/ATP mix to 10 μL enzyme and 2 μL of compound in 384-well plate. […] On the 12-sipper chip, substrate and phosphorylated product were separated with an upstream voltage of −2650 V, a downstream voltage of −500 V, and a screen pressure of −1.5 psi. The relative peak heights of substrate and product were measured and ratios were calculated using HTS Well Analyzer Software version 5.2.43 from the manufacturer.

The target in the next experiment is T3, cMet enzyme (Homo sapiens, UniProt P08581).
T3 construct: RTC Lot#032006
T3 sequence (P08581 25-1390): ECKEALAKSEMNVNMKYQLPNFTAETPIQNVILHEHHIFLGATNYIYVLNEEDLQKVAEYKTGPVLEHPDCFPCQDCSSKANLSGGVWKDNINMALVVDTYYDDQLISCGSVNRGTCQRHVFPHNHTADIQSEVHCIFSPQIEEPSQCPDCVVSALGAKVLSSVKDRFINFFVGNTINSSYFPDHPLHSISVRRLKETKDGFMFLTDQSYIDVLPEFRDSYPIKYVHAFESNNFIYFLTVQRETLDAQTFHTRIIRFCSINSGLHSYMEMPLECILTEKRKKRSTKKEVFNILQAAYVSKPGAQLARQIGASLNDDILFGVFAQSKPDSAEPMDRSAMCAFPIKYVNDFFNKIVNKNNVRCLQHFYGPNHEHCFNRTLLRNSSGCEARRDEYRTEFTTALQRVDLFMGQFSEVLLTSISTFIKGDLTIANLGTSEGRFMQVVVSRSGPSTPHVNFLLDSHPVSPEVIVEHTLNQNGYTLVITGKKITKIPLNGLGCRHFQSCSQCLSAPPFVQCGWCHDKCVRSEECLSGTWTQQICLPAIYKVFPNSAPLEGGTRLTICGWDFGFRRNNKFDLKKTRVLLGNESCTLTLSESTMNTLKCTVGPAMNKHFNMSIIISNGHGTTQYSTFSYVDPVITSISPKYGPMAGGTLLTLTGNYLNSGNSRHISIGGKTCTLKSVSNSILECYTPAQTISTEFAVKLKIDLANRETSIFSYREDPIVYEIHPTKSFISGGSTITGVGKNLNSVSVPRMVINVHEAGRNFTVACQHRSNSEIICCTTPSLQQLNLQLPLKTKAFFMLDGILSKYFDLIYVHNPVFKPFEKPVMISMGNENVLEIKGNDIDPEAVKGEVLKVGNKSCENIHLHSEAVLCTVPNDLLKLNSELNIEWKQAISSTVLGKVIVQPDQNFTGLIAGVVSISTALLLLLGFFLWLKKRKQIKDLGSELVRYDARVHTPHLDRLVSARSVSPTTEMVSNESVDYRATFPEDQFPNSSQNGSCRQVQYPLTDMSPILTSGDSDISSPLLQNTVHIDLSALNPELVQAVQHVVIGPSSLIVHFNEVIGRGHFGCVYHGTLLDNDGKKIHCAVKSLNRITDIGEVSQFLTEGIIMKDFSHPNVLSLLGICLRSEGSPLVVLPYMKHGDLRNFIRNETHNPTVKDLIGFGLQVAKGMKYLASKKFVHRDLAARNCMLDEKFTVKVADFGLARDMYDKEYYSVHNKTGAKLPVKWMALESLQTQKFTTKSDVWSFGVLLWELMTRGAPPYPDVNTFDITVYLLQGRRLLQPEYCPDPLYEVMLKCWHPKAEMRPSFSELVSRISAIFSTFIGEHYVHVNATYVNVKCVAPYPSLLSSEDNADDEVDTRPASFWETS
Put plainly: cMet enzymatic activity assay. Format: biochemical. To be noted: purified cMet enzyme 7.5 nM, ATP 17 μM (Km). How it is done:
cMet Enzymatic Activity Assay
Compounds were added at a final concentration of 2% DMSO in half-log dilutions, starting at 20 μM final concentration. The reactions were initiated by addition of 10 μL of peptide/ATP mix to 10 μL enzyme and 5 μL of compound in 384-well plate. […] Substrate and phosphorylated product were separated with an upstream voltage of −2650 V, a downstream voltage of −500V, and a screen pressure of −1.5 psi. The relative peak heights of substrate and product were measured and ratios were calculated using HTS Well Analyzer Software version 5.2.43 from the manufacturer.

T2 sequence (Q9UM73 19-1620): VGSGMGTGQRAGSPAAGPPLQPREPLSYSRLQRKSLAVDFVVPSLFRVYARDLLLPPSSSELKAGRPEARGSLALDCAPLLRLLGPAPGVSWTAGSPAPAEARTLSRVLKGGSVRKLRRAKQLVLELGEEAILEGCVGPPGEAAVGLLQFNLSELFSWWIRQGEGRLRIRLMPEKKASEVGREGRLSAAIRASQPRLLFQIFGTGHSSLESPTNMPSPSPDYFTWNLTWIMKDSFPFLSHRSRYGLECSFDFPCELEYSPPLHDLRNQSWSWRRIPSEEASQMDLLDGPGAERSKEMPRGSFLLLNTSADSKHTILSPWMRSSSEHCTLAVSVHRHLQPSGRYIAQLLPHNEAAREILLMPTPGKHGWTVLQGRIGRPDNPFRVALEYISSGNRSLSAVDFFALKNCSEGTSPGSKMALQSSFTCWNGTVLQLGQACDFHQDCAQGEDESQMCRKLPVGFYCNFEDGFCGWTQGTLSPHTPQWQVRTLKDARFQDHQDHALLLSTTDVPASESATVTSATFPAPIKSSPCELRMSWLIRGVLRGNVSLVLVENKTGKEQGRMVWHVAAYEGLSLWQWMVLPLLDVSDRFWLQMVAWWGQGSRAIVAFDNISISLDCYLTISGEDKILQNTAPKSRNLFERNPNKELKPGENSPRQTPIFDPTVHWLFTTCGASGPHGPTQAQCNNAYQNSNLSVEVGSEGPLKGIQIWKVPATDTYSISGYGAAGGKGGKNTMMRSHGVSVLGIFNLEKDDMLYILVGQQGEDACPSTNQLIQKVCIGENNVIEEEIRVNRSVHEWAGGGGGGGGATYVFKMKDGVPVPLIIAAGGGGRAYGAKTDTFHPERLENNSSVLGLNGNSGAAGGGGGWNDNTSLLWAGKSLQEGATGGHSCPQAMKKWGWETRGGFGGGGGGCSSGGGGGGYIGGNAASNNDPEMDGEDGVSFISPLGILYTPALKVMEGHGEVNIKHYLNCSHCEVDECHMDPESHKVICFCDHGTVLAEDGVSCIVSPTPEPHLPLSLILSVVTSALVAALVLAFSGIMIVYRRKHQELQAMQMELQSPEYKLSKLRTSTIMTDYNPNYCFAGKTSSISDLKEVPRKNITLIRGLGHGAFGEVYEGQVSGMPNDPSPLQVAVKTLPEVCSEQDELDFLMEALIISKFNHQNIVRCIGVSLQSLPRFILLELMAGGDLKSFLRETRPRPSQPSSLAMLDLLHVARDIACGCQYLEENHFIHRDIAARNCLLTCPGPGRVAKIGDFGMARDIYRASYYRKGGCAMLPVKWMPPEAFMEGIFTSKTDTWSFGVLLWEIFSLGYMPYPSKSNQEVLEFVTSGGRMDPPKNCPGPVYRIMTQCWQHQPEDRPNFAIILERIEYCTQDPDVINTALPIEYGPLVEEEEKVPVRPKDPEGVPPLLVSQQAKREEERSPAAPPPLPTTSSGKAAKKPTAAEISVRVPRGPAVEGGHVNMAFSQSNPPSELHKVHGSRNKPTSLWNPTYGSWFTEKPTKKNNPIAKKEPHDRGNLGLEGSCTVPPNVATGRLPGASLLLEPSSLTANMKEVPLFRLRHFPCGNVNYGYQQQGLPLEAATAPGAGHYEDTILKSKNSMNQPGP

As a reminder, the Ki is a measure of affinity in units of concentration, obtained from inhibition or displacement. By IC50 is commonly meant the concentration at which inhibition is half-maximal. As to `CC(Oc1cc(-c2cn(C)cn2)cnc1N)c1cc(F)ccc1Cl` (centres unmarked) [Example 23, 3-[1-(2-chloro-5-fluorophenyl)-ethoxy]-5-(1-methyMH-imidazol-4-yl)pyridin-2-amine], the inhibition constant Ki in experiment [1] was 45 nM. Moreover, the half-maximal inhibitory concentration (IC50) in experiment [2] (read-out: ELISA assay for WT EML4-ALK (IC50), cellular phospho-ALK (Tyr1604), NIH-3T3 EML4-ALK wt v1 cells, 1 hour) is 1080 nM; on ALK enzyme (purified ALK enzyme 10 nM, ATP 25 μM (Km)), 271 nM; against cMet enzyme, above 19100 nM.

For the compound `COc1ccc(F)cc1[C@@H](C)Oc1cc(-c2c(C)nn(CC(O)CO)c2C)cnc1N` (stereo partly drawn) [Example 26, 3-(4-{6-amino-5-[(1R)-1-(5-fluoro-2-methoxyphenyl)-ethoxy]pyridin-3-yl}-3,5-dimethyl-1H-pyrazol-1-yl)propane-1,2-diol], the Ki in experiment [1] was below 0.313 nM. For the same compound, the results for the 50% inhibitory concentration (IC50) (in experiment [2]; against ALK enzyme; against cMet enzyme) were 4.54 nM, 24.1 nM and 4300 nM, respectively.

Regarding `COc1ccc(F)cc1[C@@H](C)Oc1cc(-c2cccnc2CO)cnc1N` [Example 27, {6′-amino-5′-[(1R)-1-(5-fluoro-2-methoxyphenyl)-ethoxy]-3,3′-bipyridin-2-yl}methanol], in experiment [1], the inhibitory constant (Ki) amounted to 3.1 nM. The concentration for half-maximal inhibition (IC50) in experiment [2] is 138 nM; on ALK enzyme, 47.3 nM; at cMet enzyme, above 15400 nM.

Consider `CC(Oc1cc(-c2ccnn2C)cnc1N)c1cc(F)ccc1-n1ccnn1` (centres unmarked) [Example 32, 3-{1-[5-fluoro-2-(1H-1,2,3-triazol-1-yl)phenyl]-ethoxy}-5-(1-methyl-1H-pyrazol-5-yl)pyridin-2-amine], for which the Ki in experiment [1] is 36 nM. The 50% inhibitory concentration (IC50) in experiment [2] is 883 nM; on ALK enzyme it was 105 nM; on cMet enzyme, above 20000 nM.

Consider `COc1ncc(F)cc1C(C)Oc1cc(-c2ccnn2C)cnc1N` (centres unmarked) [Example 33, 3-[1-(5-fluoro-2-methoxypyridin-3-yl)ethoxy]-5-(1-methyl-1H-pyrazol-5-yl)pyridin-2-amine monohydrochloride], for which the Ki in experiment [1] came to 4.8 nM. For the same compound, the IC50 in experiment [2] was 380 nM; against ALK enzyme, 89.2 nM; against cMet enzyme, above 20000 nM.

Turning to `COc1ncc(F)cc1[C@@H](C)Oc1cc(-c2ccnn2C)cnc1N` [Example 34, 3-[(1R)-1-(5-fluoro-2-methoxypyridin-3-yl)ethoxy]-5-(1-methyl-1H-pyrazol-5-yl)pyridin-2-amine], the inhibitory constant (Ki) in experiment [1] is 3.8 nM. In addition, the IC50 in experiment [2] was 302 nM; on ALK enzyme it was 71.1 nM; against cMet enzyme it was above 17800 nM.

As for `CC(Oc1cc(-c2ccnn2C)cnc1N)c1cc(F)ccc1C#N` (centres unmarked) [Example 36, 2-(1-{[2-amino-5-(1-methyl-1H-pyrazol-5-yl)pyridin-3-yl]oxy}ethyl)-4-fluorobenzonitrile monohydrochloride], in experiment [1], the inhibition constant Ki stood at 22 nM. Also, the half-inhibitory concentration (IC50) in experiment [2] was 862 nM; against ALK enzyme, 120 nM; against cMet enzyme, above 15800 nM.

Turning to `CC(Oc1cc(-c2ccnn2C)cnc1N)c1cc(F)ccc1-n1cccn1` (centres unmarked) [Example 37, 3-{1-[5-fluoro-2-(1H-pyrazol-1-yl)phenyl]-ethoxy}-5-(1-methyl-1H-pyrazol-5-yl)pyridin-2-amine], the Ki in experiment [1] worked out at 1.55 nM. For the same compound, the half-maximal inhibitory concentration (IC50) came to 147 nM in experiment [2], 70.3 nM against ALK enzyme and 8090 nM on cMet enzyme.

As to `COc1ncc(F)cc1C(C)Oc1cc(-c2c[nH]nc2C)cnc1N` (centres unmarked) [Example 41, 3-[1-(5-fluoro-2-methoxypyridin-3-yl)ethoxy]-5-(3-methyl-1H-pyrazol-4-yl)pyridin-2-amine], in experiment [1], the inhibitory constant (Ki) worked out at 0.922 nM. Moreover, the IC50 in experiment [2] stood at 58.6 nM; against ALK enzyme, 15.7 nM; against cMet enzyme, 5590 nM.

Regarding `CC(Oc1cc(-c2ccnn2C)cnc1N)c1cc(F)cc2scnc12` (centres unmarked) [Example 42, 3-[1-(6-fluoro-1,3-benzothiazol-4-yl)ethoxy]-5-(1-methyl-1H-pyrazol-5-yl)pyridin-2-amine], the inhibition constant (Ki) in experiment [1] is 2.05 nM. Further, the IC50 in experiment [2] is 263 nM; on ALK enzyme it was 58.1 nM; against cMet enzyme, above 15900 nM.

With `Cc1n[nH]cc1-c1cnc(N)c(OC(C)c2cc(F)ccc2Cl)c1` (centres unmarked) [Example 45, 3-[1-(2-chloro-5-fluorophenyl)ethoxy]-5-(3-methyl-1H-pyrazol-4-yl)pyridin-2-amine], in experiment [1], the Ki stood at 1.57 nM. Moreover, the results for the IC50 (in experiment [2]; on ALK enzyme; on cMet enzyme) were 106 nM, 75.6 nM and 4160 nM, respectively.

Take `Cc1n[nH]cc1-c1cnc(N)c(OC(C)c2cc(F)ccc2-n2cccn2)c1` (centres unmarked) [Example 47, 3-{1-[5-fluoro-2-(1H-pyrazol-1-yl)phenyl]-ethoxy}-5-(3-methyl-1H-pyrazol-4-yl)pyridin-2-amine]: the inhibition constant Ki in experiment [1] was below 0.2 nM. The IC50 in experiment [2] came out at 45.7 nM; against ALK enzyme it was 70.5 nM; on cMet enzyme, 2850 nM.

For the compound `COc1ccncc1-c1cnc(N)c(OC(C)c2cc(F)ccc2OC)c1` (centres unmarked) [Example 50, 5-[1-(5-fluoro-2-methoxyphenyl)-ethoxy]-4′-methoxy-3,3′-bipyridin-6-amine], the Ki in experiment [1] is 0.739 nM. The values for the half-inhibitory concentration (IC50) (in experiment [2]; on ALK enzyme; against cMet enzyme) were 58.4 nM, 50.2 nM and 5070 nM, respectively.

As for `CC(Oc1cc(-c2ccnn2C)cnc1N)c1cc(F)cc2cccnc12` (centres unmarked) [Example 51, 3-[1-(6-fluoroquinolin-8-yl)ethoxy]-5-(1-methyl-1H-pyrazol-5-yl)pyridin-2-amine], in experiment [1], the Ki turned out to be 61 nM. Besides, the IC50 in experiment [2] worked out at 1450 nM; at ALK enzyme, 45.2 nM; at cMet enzyme it was 7870 nM.

With `Cc1n[nH]c(C)c1-c1cnc(N)c(OC(C)c2cc(F)ccc2-n2cccn2)c1` (centres unmarked) [Example 52, 5-(3,5-dimethyl-1H-pyrazol-4-yl)-3-{1-[5-fluoro-2-(1H-pyrazol-1-yl)phenyl]-ethoxy}pyridin-2-amine], the inhibition constant Ki in experiment [1] was 1.1 nM. Also, the figures for the IC50 (in experiment [2]; at ALK enzyme; against cMet enzyme) were 14.5 nM, 73.3 nM and 10400 nM, respectively.

On to `COc1ccc(F)cc1[C@@H](C)Oc1cc(-c2c(C)nn(CCO)c2C)cnc1N` [Example 53, 2-(4-{6-amino-5-[(1R)-1-(5-fluoro-2-methoxyphenyl)-ethoxy]pyridin-3-yl}-3,5-dimethyl-1H-pyrazol-1-yl)ethanol], for which the inhibitory constant (Ki) in experiment [1] was determined as 0.401 nM. Besides, the concentration for half-maximal inhibition (IC50) was 23.3 nM in experiment [2], 27 nM against ALK enzyme and 4440 nM against cMet enzyme.

For `COc1ccc(F)cc1C(C)Oc1cc(-c2c(C)noc2C)cnc1N` (centres unmarked) [Example 54, 5-(3,5-dimethylisoxazol-4-yl)-3-[1-(5-fluoro-2-methoxyphenyl)-ethoxy]pyridin-2-amine], in experiment [1], the inhibition constant (Ki) amounted to 1.3 nM. In addition, the IC50 is 194 nM in experiment [2], 47.2 nM against ALK enzyme and above 18200 nM on cMet enzyme.

For the compound `CC(Oc1cc(-c2ccnn2C)nnc1N)c1cc(F)ccc1-n1cccn1` (centres unmarked) [Example 55, 4-{1-[5-fluoro-2-(1H-pyrazol-1-yl)phenyl]ethoxy}-6-(1-methyl-1H-pyrazol-5-yl)pyridazin-3-amine], in experiment [1], the inhibitory constant (Ki) worked out at 43 nM. Also, the half-maximal inhibitory concentration (IC50) was 1760 nM in experiment [2], 87.6 nM at ALK enzyme and above 20000 nM against cMet enzyme.

In the case of `COc1ccc(F)cc1[C@@H](C)Oc1cc(-c2ccnn2C)nnc1N` [Example 56, 4-[(1R)-1-(5-fluoro-2-methoxyphenyl)ethoxy]-6-(1-methyl-1H-pyrazol-5-yl)pyridazin-3-amine], the Ki in experiment [1] stood at 6.4 nM. Moreover, the IC50 in experiment [2] was 361 nM; on ALK enzyme it was 47.5 nM; at cMet enzyme, above 20000 nM.

Consider `COc1ccc(F)cc1C(C)Oc1nc(-c2cn(C)c(C)n2)cnc1N` (centres unmarked) [Example 57, 5-(1,2-dimethyl-1H-imidazol-4-yl)-3-[1-(5-fluoro-2-methoxyphenyl)ethoxy]pyrazin-2-amine], for which the inhibition constant Ki in experiment [1] was found to be 5.4 nM. In addition, the values for the IC50 (in experiment [2]; against ALK enzyme; at cMet enzyme) were 245 nM, 58.7 nM and above 20000 nM, respectively.

Turning to `COc1ccc(F)cc1C(C)Oc1nc(-c2cn(C)cn2)cnc1N` (centres unmarked) [Example 58, 3-[1-(5-fluoro-2-methoxyphenyl)ethoxy]-5-(1-methyl-1H-imidazol-4-yl)pyrazin-2-amine], the Ki in experiment [1] is 1.3 nM. Further, the IC50 is 159 nM in experiment [2], 86.5 nM against ALK enzyme and above 20000 nM on cMet enzyme.

For the compound `CC(Oc1nc(-c2cn(C)cn2)cnc1N)c1cc(F)ccc1Cl` (centres unmarked) [Example 59, 3-[1-(2-chloro-5-fluorophenyl)ethoxy]-5-(1-methyl-1H-imidazol-4-yl)pyrazin-2-amine], the Ki in experiment [1] was found to be 13 nM. Besides, the results for the IC50 (in experiment [2]; against ALK enzyme; on cMet enzyme) were 631 nM, 126 nM and above 20000 nM, respectively.

With `COc1ccc(F)cc1C(C)Oc1nc(-c2nccn2C)cnc1N` (centres unmarked) [Example 60, 3-[1-(5-fluoro-2-methoxyphenyl)ethoxy]-5-(1-methyl-1H-imidazol-2-yl)pyrazin-2-amine], the Ki in experiment [1] was determined as 6.4 nM. Further, the concentration for half-maximal inhibition (IC50) is 555 nM in experiment [2], 67.3 nM against ALK enzyme and above 20000 nM at cMet enzyme.
